The text below walks through data of publication PMC6931124, “NPY1R-targeted peptide-mediated delivery of a dual PPARα/γ agonist to adipocytes enhances adipogenesis and prevents diabetes progression” (Molecular Metabolism, 2019).

The nature of one data set: Serum adiponectin. Format: in vivo. Conditions: db/db mice, 2.5 μmol/kg/day, 8 days; ELISA; n = 5. The protocol: (§1) All of the experiments were performed according to the animal ethical laws of the state Saxony, Germany, and were approved by the local animal ethics review board (Landesdirektion Sachsen, Leipzig, Germany). Female db/db mice 12–15 weeks of age were purchased from Taconic (Denmark) and housed in groups of 5 in temperature- and humidity-controlled facilities in a 12 h:12 h light–dark cycle and had free access to tap water and food (regular chow, Sniff, Soest, Germany). Three out of seven groups served as controls (N = 15, see Table 1). The 5 db/db mice were untreated and 10 db/db mice were vehicle treated either orally or intraperitoneally (i.p.). One additional group (n = 5) of lean C57BL/6NTac mice was used as a metabolically healthy control group. […]
Serum insulin (mouse insulin ELISA, Mercodia, Uppsala, Sweden), adiponectin (mouse adiponectin ELISA, AdipoGen, San Diego, CA, USA), leptin (mouse leptin ELISA, Crystal Chem, Downers Grove, IL, USA), and Mcp-1 (mouse/rat CCL2/JE/Mcp-1 Quantikine ELISA, R&D Systems, Minneapolis, MN, USA) levels were analyzed via ELISA according to the manufacturer's instructions. Serum concentrations of TG, FFA, and cholesterol were measured by an automatic chemical analyzer at the Institute of Laboratory Medicine and Clinical Chemistry.

For data set [1] the following is noted: cited from earlier work. The text has this:
The dual PPARα/γ agonist tesaglitazar (tesa), in contrast, contains a carboxyl function suitable for synthesis. […] The clinical investigation of tesa was discontinued in phase III because of safety concerns regarding ...

The test system of the next data set is SGBS preadipocytes. As to the kind of experiment: AdipoRed adipogenesis assay, SGBS. Format: cell-based, human. Conditions: 24 h; tesa 10/25/100 μM, tesa-NPY 100 μM; AdipoRed fluorescence, DMSO = 100%; n = 3 in quadruplicate. How it is done:
3T3-L1 or SGBS cells were seeded into 96-well plates and grown to complete confluency (set as day 0). On day 2 of confluence, the 3T3-L1 cells were differentiated by DMEM High Glucose Medium supplemented with 10% (v/v) not-heat inactivated FCS, 0.5 mM IBMX, 167 nM human insulin, and 1 μM dexamethasone (differentiation medium). On day 4, the medium was replaced by insulin medium (DMEM High Glucose Medium, 10% not-heat inactivated FCS, and 167 nM human insulin). On day 6, the medium was changed to standard culture medium and changed every other day until full differentiation was achieved (on day 8). The SGBS cells were differentiated as previously described. […] On day 4, the medium was replaced by 3FC medium (DMEM High Glucose Medium and Hams F12 (1:1 (v/v))) without FCS and supplemented with 0.01 mg human apo-transferrin, 20 nM human insulin, triiodo-L-thyronine, and 100 nM hydrocortisone. The medium was changed every second day until full differentiation was achieved (day 10). […]
(A, B) Cells were differentiated and stimulated according to the protocol depicted for 3T3-L1 (A) and for SGBS (B). […] (E,F) Expression of adipocyte-enriched genes in 3T3-L1 (E) or SGBS (F) adipocytes analyzed by qPCR. […] Statistical significances refer to DMSO-treated cells and were determined by one-way analysis of variance (ANOVA) followed by Dunnett's multiple comparison test, *≤0.05, **p ≤ 0.01, ***p ≤ 0.001.

On the set-up of data set [2]: method as in Ljung et al. [74]. Conditions: ref Ljung et al. [74]; cited from earlier work. The text has this:
In the present study, we used db/db mice to evaluate the anti-diabetic potency of the peptide conjugate, as these mice are known to develop severe insulin resistance and hypertriglyceridemia.

Data set [3] relates to subcutaneous and epigonadal adipose tissue. As to the kind of experiment: Adipose tissue histology and adipocyte size. Format: in vivo. Conditions: db/db mice, 2.5 μmol/kg/day, 8 days; H&E, epigonadal and subcutaneous AT. The protocol:
All of the experiments were performed according to the animal ethical laws of the state Saxony, Germany, and were approved by the local animal ethics review board (Landesdirektion Sachsen, Leipzig, Germany). Female db/db mice 12–15 weeks of age were purchased from Taconic (Denmark) and housed in groups of 5 in temperature- and humidity-controlled facilities in a 12 h:12 h light–dark cycle and had free access to tap water and food (regular chow, Sniff, Soest, Germany). Three out of seven groups served as controls (N = 15, see Table 1). The 5 db/db mice were untreated and 10 db/db mice were vehicle treated either orally or intraperitoneally (i.p.). One additional group (n = 5) of lean C57BL/6NTac mice was used as a metabolically healthy control group. Groups 1 to 5 were treated daily with 2.5 μmol/kg body weight tesa, peptides or vehicle (1% (v/v) DMSO in PBS) either by gavage or intraperitoneal injection for 8 days according to Table 1. The control mice were gavaged with an equal volume of vehicle.

The nature of data set [4]: Body weight change in db/db mice. It counts as in vivo. Conditions: 2.5 μM/kg/day, 8 days, tesa oral, peptides i.p., n = 5. How it is done: as §1, with “(i.p.).” for “(i.p.). One additional group (n = 5) of lean C57BL/6NTac mice was used as a metabolically healthy control group.”
All of the mice were monitored for 9 days during the treatment period. Body weight, food intake, and water uptake were recorded daily and body composition (lean body mass and whole body fat mass) was recorded at the beginning, middle, and end of the study in the conscious mice using an EchoMRI system (Echo Medical Systems, Houston, TX, USA). At the beginning and end of the treatment period, the HbA1c levels were determined from 5 μl of whole venous blood samples using an automated chemical analyzer at the Institute of Laboratory Medicine and Clinical Chemistry and beta-ketone using an automated glucose monitor (FreeStyle Precision H, Abbott GmbH, Ludwigshafen, Germany). […]

In data set [5] the test system is LDL receptor-deficient mice. Conditions: ref [94]; cited from earlier work.

“Also recorded” adds a separate entry of the source.

For `CCO[C@@H](Cc1ccc(OCCc2ccc(OS(C)(=O)=O)cc2)cc1)C(=O)O` [tesa, tesaglitazar], the “adiponectin, serum” value in the data set “Serum adiponectin” is listed as “normalization of the plasma concentration”. For the same compound, the insulin resistance entry in data set [1] (mice and humans, ref [41, 42, 43]) is “reduce insulin resistance in mice and humans”. For the same compound, the clinical safety result in data set [1] (phase III, ref [16, 44]) was “discontinued in phase III because of safety concerns regarding renal dysfunction”. For the same compound, the “adipogenesis (triglyceride content), SGBS” value in the data set with SGBS preadipocytes is recorded as “enhanced adipogenesis in both cell lines”. The “weight gain in treated animals” value in data set [2] was “does not lead to weight gain in treated animals”. Besides, in data set [3], the adipocyte size entry was “trend toward smaller adipocyte size”. Also, the “body weight change, in words” value in data set [4] is listed as “did not change significantly; also recorded: can prevent this weight loss”. Moreover, the “atherosclerosis in LDL receptor-deficient mice” value in data set [5] was “reduces atherosclerosis in LDL receptor-deficient mice”.
